Assay results as given in publication PMC10931833, “Simultaneous Purification of Human Interferon Alpha-2b and Serum Albumin Using Bioprivileged Fluorinated Ionic Liquid-Based Aqueous Biphasic Systems” (International Journal of Molecular Sciences, 2024).

Columns and labels:
BSA [1] = molecular target: T1, BSA (Bos taurus, UniProt P02769); assay: Far-UV CD secondary structure of BSA (CONTIN-LL deconvolution); type: physicochemical, bovine; conditions: 1.0 mg/mL BSA, 25 °C
T1 construct: purchased Millipore Sigma-Aldrich
Excerpt: Circular dichroism (CD) is widely used to study the secondary structures of proteins, peptides and nucleic acids, because it requires a low concentration sample, is a nondestructive method, allows studying a wide range of variables (temperature, pH, etc.), and provides information on the effect of added ligands on protein folding and interactions. Far-UV (190–260 nm) CD spectroscopy was used to assess the IFN- α 2b and BSA secondary structure since the spectra are characteristic of different structural elements.
(§1) Circular dichroism (CD) spectra were collected in a 10 mm quartz cuvette and a Chirascan spectropolarimeter (Applied Photophysics, UK) at room temperature. All CD spectra were recorded in the far-UV range of 190 to 260 nm at scan rates of 50 nm/min, with 4 accumulations, and a response time of 3 s; CD spectra were collected. For each CD experiment, two distinct duplicates were acquired and combined. BSA was fixed at 1 mg/mL, solvent concentrations ranging from 0.1 to 200 mM were used, and the spectra were translated to MRE after being expressed in terms of molar ellipticity. Spectral deconvolution was carried out with DichroWeb using the CONTIN-LL deconvolution algorithm with the SMP180 reference set.

FITC-BSA = molecular target: T2, FITC-BSA (Bos taurus, UniProt P02769); assay: MST binding to FITC-BSA; design: species or system bovine; conditions: 0.41 μM BSA
T2 construct: purchased Millipore Sigma-Aldrich
Experimental: Herein, a commercial FITC labeling kit (Section 3) was used to fluorescently tag both IFN- α 2b and BSA. Typically, in the labeling process, one amine per protein is labeled, statistically distributing the position of the dye. […] The MST assay was performed as detailed in Section 3. The solutions were prepared with a concentration of IFN- α 2b and BSA fixed at 0.41 μ M in water. For IFN- α 2b a concentration of 2.7 μ M was also prepared to compare it with previous results on MST-binding between FILs and IFN- α 2b fluorescently labeled with a different tag. In each run of MST, a maximum concentration of a ligand is selected and consecutively diluted in sixteen capillaries. […] The experimental conditions of the MST assay only allow the study of the aggregation phenomenon individually for the first CAC.
Microscale thermophoresis (MST) measurements of the dye-labeled protein were used to conduct binding investigations. […] MST tests were conducted in a monolith NT.115 (blue/red) in accordance with the NanoTemper Technologies methodology. Medium MST power and 20% LED power (nano-blue) were set as the instrument’s default settings. For every MST measurement, a PBS buffer was used. The concentration of FITC-BSA was fixed at 0.4 μ M and FITC-IFN- α 2b was tested under two different concentrations (of 0.4 and 2.7 μ M). The ligand was used to create a set of 16 1:1 dilutions, with the starting ligand concentrations ranging from 10 to 400 mM. The typical parameters for MST traces were used for recording: […], 30 s MST power on, and 5 s MST power off. The data from three independently conducted pipetted experiments were examined using NanoTemper Technologies’ MO.Affinity Analysis software, version 2.3.

BSA [2] = molecular target: T1, BSA; assay: CD thermal unfolding (Tm) of BSA; type: physicochemical, bovine; conditions: 1.0 mg/ml BSA, 200 mM component aqueous solution
Excerpt: The thermal stability assessed by far-UV CD is solely determined through the thermal decay of the alpha-helical structure.

BSA [3] = molecular target: T1, BSA; assay: DSC thermal unfolding of BSA in water and aqueous solutions of ABS phase-forming components; type: physicochemical, bovine; conditions: for Tm / ΔG / ΔHcal / ΔHcal/ΔHvH / ΔHvH / ΔS: 1.0 mg/mL BSA
Experimental: Differential scanning calorimetry (DSC) measurements were performed with Nano DSC equipment, as detailed in Section 3, and used to determine the melting temperature (T m ) and enthalpy ( Δ H) of protein unfolding. DSC analyzes changes in the structure and stability of proteins as thermal transitions at the nanoscale. Using DSC to measure heat capacity as a function of the temperature of a well-studied protein such as BSA provides keen insights into folding and unfolding processes, as well as factors affecting stability. Due to the volume and concentration requirements of the DSC technique, and the constraints in available quantities of IFN- α 2b the DSC experiments on the ABS phase-forming components’ effect on the structural properties of proteins were attained only for BSA.
The T m of BSA, which corresponds to the thermal unfolding transition midpoint, was measured in the absence and presence of the ABS phase-forming components at increasing concentrations (see Figure 1 and Table 2).

IFN-α2b [4] = molecular target: T3, IFN-α2b (Homo sapiens, UniProt P01563); assay: Far-UV CD secondary structure of IFN-α2b (CONTIN-LL deconvolution); type: physicochemical
T3 construct: single non-glycosylated polypeptide chain with a molecular weight of 19 kDa, comprising 165 amino acids; purchased Millipore Sigma-Aldrich SRP4595-100UG; host or cells: E. coli
Excerpt: Circular dichroism (CD) is widely used to study the secondary structures of proteins, peptides and nucleic acids, because it requires a low concentration sample, is a nondestructive method, allows studying a wide range of variables (temperature, pH, etc.), and provides information on the effect of added ligands on protein folding and interactions.
as §1, with “BSA was fixed at 1 mg/mL, solvent concentrations ranging from 0.1 to 200 mM were used, and the spectra were translated to MRE after being expressed in terms of molar ellipticity.” left out

IFN-α2b [5] = molecular target: T3, IFN-α2b; assay: CD thermal unfolding (Tm) of IFN-α2b; type: physicochemical
Experimental: The same analyses attained for 208 nm and 192 nm are illustrated in Figures S5 and S6 in the Supplementary Materials. The corresponding T m values are estimated by fitting to a sigmoid with four parameters (one-way ANOVA, significance level of 0.05) and summarized in Table S2 in the Supplementary Materials. The CD T m of 0.125 mg/mL native IFN- α 2b is in good agreement with what was previously reported. […] The estimated T m values are summarized in Table S2 in the Supplementary Materials. The same analysis is attained for 208 nm and 192 nm, as depicted in Figures S5 and S6 in the Supplementary Materials. All the CD T m results are summarized in Table S2 in the Supplementary Materials. The thermal stability assessed by far-UV CD is solely determined through the thermal decay of the alpha-helical structure.
The same analysis was attained for 208 nm and 192 nm as illustrated in Figure S13 in the Supplementary Materials. The corresponding T m values are depicted in Table 5, and were estimated by fitting a sigmoid with four parameters (one-way ANOVA, with a significance level of 0.05).

[6] = ref 44 (IFN-α2b), 91 (BSA), 96 (Lys); cited from earlier work
[7] = 0.125 mg/mL IFN-α2b in water, 25 °C
[8] = 0.099-0.12 mg/mL IFN-α2b in [N1112(OH)][C4F9SO3]-rich phase of BP#8

T1 sequence (P02769 25-607): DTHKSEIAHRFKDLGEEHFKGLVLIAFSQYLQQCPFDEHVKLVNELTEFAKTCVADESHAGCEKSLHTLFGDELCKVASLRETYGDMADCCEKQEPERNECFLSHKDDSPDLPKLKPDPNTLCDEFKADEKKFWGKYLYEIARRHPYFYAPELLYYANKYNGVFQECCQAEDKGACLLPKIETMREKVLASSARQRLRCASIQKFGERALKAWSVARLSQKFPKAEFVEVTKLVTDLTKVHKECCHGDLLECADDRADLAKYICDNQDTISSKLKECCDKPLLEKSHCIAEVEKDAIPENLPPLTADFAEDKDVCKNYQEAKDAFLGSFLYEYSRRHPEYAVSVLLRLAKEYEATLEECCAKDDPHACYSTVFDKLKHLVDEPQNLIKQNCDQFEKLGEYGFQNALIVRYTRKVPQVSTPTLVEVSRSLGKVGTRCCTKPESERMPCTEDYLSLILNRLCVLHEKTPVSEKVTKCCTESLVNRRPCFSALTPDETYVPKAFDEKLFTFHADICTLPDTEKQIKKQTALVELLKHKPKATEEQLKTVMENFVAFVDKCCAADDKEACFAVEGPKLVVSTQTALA
T3 sequence (P01563 24-188): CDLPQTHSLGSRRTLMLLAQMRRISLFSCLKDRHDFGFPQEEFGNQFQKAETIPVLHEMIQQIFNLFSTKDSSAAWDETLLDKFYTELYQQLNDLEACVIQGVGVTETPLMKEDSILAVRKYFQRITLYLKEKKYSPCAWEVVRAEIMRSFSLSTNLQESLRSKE
T2 sequence (P02769 25-607): as the sequence (P02769 25-607) above

C[N+](C)(C)CCO.C[N+](C)(C)CCO.O=P([O-])(O)O.O=P([O-])(O)O [[N1112(OH)][H2PO4], Choline ((2-hydroxyethyl)trimethylammonium) dihydrogen phosphate]
Distorted Alpha Helix (BSA [1]; 0.1 mM component): 0.204
Distorted Beta Sheet (BSA [1]; 0.1 mM component): 0.031
Regular Alpha Helix (BSA [1]; 0.1 mM component): 0.397
Regular Beta Sheet (BSA [1]; 0.1 mM component): 0.000
Turns (BSA [1]; 0.1 mM component): 0.147
Unordered (BSA [1]; 0.1 mM component): 0.221
Distorted Alpha Helix (BSA [1]; 1 mM component): 0.210
Distorted Beta Sheet (BSA [1]; 1 mM component): 0.023
Regular Alpha Helix (BSA [1]; 1 mM component): 0.393
Regular Beta Sheet (BSA [1]; 1 mM component): 0.000
Turns (BSA [1]; 1 mM component): 0.132
Unordered (BSA [1]; 1 mM component): 0.242
Distorted Alpha Helix (BSA [1]; 5 mM component): 0.203
Distorted Beta Sheet (BSA [1]; 5 mM component): 0.023
Regular Alpha Helix (BSA [1]; 5 mM component): 0.377
Regular Beta Sheet (BSA [1]; 5 mM component): 0.004
Turns (BSA [1]; 5 mM component): 0.128
Unordered (BSA [1]; 5 mM component): 0.265
Distorted Alpha Helix (BSA [1]; 25 mM component): 0.195
Distorted Beta Sheet (BSA [1]; 25 mM component): 0.029
Regular Alpha Helix (BSA [1]; 25 mM component): 0.36
Regular Beta Sheet (BSA [1]; 25 mM component): 0.015
Turns (BSA [1]; 25 mM component): 0.136
Unordered (BSA [1]; 25 mM component): 0.266
Distorted Alpha Helix (BSA [1]; 55 mM component): 0.150
Distorted Beta Sheet (BSA [1]; 55 mM component): 0.055
Regular Alpha Helix (BSA [1]; 55 mM component): 0.242
Regular Beta Sheet (BSA [1]; 55 mM component): 0.080
Turns (BSA [1]; 55 mM component): 0.153
Unordered (BSA [1]; 55 mM component): 0.320
Distorted Alpha Helix (BSA [1]; 90 mM component): 0.171
Distorted Beta Sheet (BSA [1]; 90 mM component): 0.044
Regular Alpha Helix (BSA [1]; 90 mM component): 0.294
Regular Beta Sheet (BSA [1]; 90 mM component): 0.057
Turns (BSA [1]; 90 mM component): 0.145
Unordered (BSA [1]; 90 mM component): 0.289
Distorted Alpha Helix (BSA [1]; 120 mM component): 0.207
Distorted Beta Sheet (BSA [1]; 120 mM component): 0.029
Regular Alpha Helix (BSA [1]; 120 mM component): 0.396
Regular Beta Sheet (BSA [1]; 120 mM component): 0.018
Turns (BSA [1]; 120 mM component): 0.141
Unordered (BSA [1]; 120 mM component): 0.208
Distorted Alpha Helix (BSA [1]; 200 mM component): 0.202
Distorted Beta Sheet (BSA [1]; 200 mM component): 0.032
Regular Alpha Helix (BSA [1]; 200 mM component): 0.386
Regular Beta Sheet (BSA [1]; 200 mM component): 0.021
Turns (BSA [1]; 200 mM component): 0.146
Unordered (BSA [1]; 200 mM component): 0.212
Kd (FITC-BSA; max. conc. first capillary 12.5 mM (monomer)): no binding detected
Kd (FITC-BSA; max. conc. first capillary 400 mM (monomer)): no binding detected
Tm, Ellipticity 192 nm (BSA [2]): 65.691 °C
Tm, Ellipticity 208 nm (BSA [2]): 76.945 °C
Tm, Ellipticity 222 nm (BSA [2]): 66.702 °C
Tm (BSA [3]; 0.1 mM component): 75.36 °C
ΔG (BSA [3]; 0.1 mM component): 63.60 kJ/mol
ΔHcal (BSA [3]; 0.1 mM component): 442.9 kJ/mol
ΔHcal/ΔHvH (BSA [3]; 0.1 mM component): 0.949
ΔHvH (BSA [3]; 0.1 mM component): 466.8 kJ/mol
ΔS (BSA [3]; 0.1 mM component): 1.272 KJ/(mol.K)
Tm (BSA [3]; 1 mM component): 81.59 °C
ΔG (BSA [3]; 1 mM component): 75.40 kJ/mol
ΔHcal (BSA [3]; 1 mM component): 470.4 kJ/mol
ΔHcal/ΔHvH (BSA [3]; 1 mM component): 0.613
ΔHvH (BSA [3]; 1 mM component): 766.8 kJ/mol
ΔS (BSA [3]; 1 mM component): 1.325 KJ/(mol.K)
Tm (BSA [3]; 5 mM component): 80.80 °C
ΔG (BSA [3]; 5 mM component): 107.6 kJ/mol
ΔHcal (BSA [3]; 5 mM component): 678.6 kJ/mol
ΔHcal/ΔHvH (BSA [3]; 5 mM component): 1.081
ΔHvH (BSA [3]; 5 mM component): 627.7 kJ/mol
ΔS (BSA [3]; 5 mM component): 1.915 KJ/(mol.K)
Tm (BSA [3]; 10 mM component): 73.90 °C
ΔG (BSA [3]; 10 mM component): 72.90 kJ/mol
ΔHcal (BSA [3]; 10 mM component): 513.7 kJ/mol
ΔHcal/ΔHvH (BSA [3]; 10 mM component): 0.998
ΔHvH (BSA [3]; 10 mM component): 514.8 kJ/mol
ΔS (BSA [3]; 10 mM component): 1.479 KJ/(mol.K)
effect on BSA Tm (DSC) (BSA [3]; tested concentration range vs water): maintained

Human interferon-alpha 2b [IFN-α2b]
Distorted Alpha Helix (IFN-α2b [4]; [7]): 0.145
Distorted Beta Sheet (IFN-α2b [4]; [7]): 0.071
Regular Alpha Helix (IFN-α2b [4]; [7]): 0.289
Regular Beta Sheet (IFN-α2b [4]; [7]): 0.049
Turns (IFN-α2b [4]; [7]): 0.209
Unordered (IFN-α2b [4]; [7]): 0.238
predicted α-helical content (IFN-α2b [4]; IFN-α2b in water, CD deconvolution): 0.44
Tm, Ellipticity 192 nm (IFN-α2b [5]; 0.125 mg/mL IFN-α2b in water): 63.311 °C
Tm, Ellipticity 208 nm (IFN-α2b [5]; 0.125 mg/mL IFN-α2b in water): 66.156 °C
Tm, Ellipticity 222 nm (IFN-α2b [5]; 0.125 mg/mL IFN-α2b in water): 67.548 °C
Tm, Ellipticity 192 nm (IFN-α2b [5]; [8]): 42.274 °C
Tm, Ellipticity 208 nm (IFN-α2b [5]; [8]): 71.217 °C
Tm, Ellipticity 222 nm (IFN-α2b [5]; [8]): 62.080 °C
iso-electric point [6]: around 5.9

lysozyme
iso-electric point [6]: approximately 11.0
